According to US9340590B2 (priority 2011, dated 2016):
pIC50: −log10 of the molar value. Where two headings read alike, the source gives them in different places. Positions of bridges follow the written chain, without caps; N, C: chain ends. Non-standard residues stand in square brackets, D forms with d. Residues, ends and D or L forms follow the SMILES beside them. Phe(4-COOH) = N[C@@H](Cc1ccc(C(=O)O)cc1)C(=O)O; 1Nal = N[C@@H](Cc1cccc2ccccc12)C(=O)O; 2Nal = N[C@@H](Cc1ccc2ccccc2c1)C(=O)O; Abu = CC[C@H](N)C(=O)O

What was measured:
Test in all cases: cell-based
[1] = molecular target: hNav1.3 (Homo sapiens, UniProt Q9NY46); conditions: IonWorks Quattro, read-out: IWQ Use Nav1.3
Chain of hNav1.3 (Q9NY46 whole entry, looked up): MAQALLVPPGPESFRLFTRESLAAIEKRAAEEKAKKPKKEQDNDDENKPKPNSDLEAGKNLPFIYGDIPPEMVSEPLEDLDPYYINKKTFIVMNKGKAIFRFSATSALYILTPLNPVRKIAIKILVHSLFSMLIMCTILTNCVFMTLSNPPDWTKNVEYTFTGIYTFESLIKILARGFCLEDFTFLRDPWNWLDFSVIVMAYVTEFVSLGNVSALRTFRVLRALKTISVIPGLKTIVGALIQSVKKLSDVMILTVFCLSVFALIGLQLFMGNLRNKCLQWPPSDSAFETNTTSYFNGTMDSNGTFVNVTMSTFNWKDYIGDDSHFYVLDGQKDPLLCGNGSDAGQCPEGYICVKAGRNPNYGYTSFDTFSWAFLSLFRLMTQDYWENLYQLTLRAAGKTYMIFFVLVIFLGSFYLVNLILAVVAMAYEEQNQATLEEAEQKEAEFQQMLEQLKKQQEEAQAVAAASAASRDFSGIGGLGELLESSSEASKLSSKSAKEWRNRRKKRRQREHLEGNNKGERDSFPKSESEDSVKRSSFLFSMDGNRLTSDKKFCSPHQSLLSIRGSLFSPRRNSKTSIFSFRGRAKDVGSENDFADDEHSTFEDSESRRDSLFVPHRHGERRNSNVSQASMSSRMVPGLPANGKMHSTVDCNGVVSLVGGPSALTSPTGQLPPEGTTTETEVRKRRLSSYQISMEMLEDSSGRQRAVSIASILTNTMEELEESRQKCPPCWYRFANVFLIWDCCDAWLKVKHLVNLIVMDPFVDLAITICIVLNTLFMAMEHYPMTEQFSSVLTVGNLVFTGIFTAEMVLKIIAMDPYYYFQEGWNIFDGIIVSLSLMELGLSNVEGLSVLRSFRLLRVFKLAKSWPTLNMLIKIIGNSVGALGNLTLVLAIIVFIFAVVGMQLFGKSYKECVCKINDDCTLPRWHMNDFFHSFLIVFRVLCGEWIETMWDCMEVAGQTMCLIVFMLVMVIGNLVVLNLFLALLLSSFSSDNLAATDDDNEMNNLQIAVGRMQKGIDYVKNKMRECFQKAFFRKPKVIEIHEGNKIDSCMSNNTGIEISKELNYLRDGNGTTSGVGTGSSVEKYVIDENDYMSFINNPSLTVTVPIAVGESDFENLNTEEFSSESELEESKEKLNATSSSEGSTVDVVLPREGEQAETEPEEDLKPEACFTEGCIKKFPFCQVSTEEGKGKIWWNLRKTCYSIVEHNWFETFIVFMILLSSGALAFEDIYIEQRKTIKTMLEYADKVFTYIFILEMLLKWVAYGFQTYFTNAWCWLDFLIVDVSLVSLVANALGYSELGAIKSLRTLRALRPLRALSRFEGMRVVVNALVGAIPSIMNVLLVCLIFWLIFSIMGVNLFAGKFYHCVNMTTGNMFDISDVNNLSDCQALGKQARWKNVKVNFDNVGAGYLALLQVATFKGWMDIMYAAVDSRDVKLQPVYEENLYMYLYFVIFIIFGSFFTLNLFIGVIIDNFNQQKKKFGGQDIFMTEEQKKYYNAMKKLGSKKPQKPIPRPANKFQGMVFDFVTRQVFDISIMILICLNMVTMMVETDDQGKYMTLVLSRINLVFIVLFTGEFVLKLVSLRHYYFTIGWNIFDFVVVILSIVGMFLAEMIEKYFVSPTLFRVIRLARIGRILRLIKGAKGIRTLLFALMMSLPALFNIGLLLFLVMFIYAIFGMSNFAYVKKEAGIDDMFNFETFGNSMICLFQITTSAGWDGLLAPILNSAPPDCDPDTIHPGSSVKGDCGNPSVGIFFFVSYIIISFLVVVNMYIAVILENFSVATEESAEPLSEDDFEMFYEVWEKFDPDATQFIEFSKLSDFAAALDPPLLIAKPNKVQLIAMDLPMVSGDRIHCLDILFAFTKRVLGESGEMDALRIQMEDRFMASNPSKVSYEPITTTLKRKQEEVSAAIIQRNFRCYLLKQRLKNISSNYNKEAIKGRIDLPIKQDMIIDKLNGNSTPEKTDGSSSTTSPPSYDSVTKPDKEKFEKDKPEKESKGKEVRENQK

[2] = molecular target: hNav1.7 (Homo sapiens, UniProt Q15858); assay type: cell-based; conditions: IonWorks Quattro, read-out: IWQ Use Nav1.7
Chain of hNav1.7 (Q15858 whole entry, looked up): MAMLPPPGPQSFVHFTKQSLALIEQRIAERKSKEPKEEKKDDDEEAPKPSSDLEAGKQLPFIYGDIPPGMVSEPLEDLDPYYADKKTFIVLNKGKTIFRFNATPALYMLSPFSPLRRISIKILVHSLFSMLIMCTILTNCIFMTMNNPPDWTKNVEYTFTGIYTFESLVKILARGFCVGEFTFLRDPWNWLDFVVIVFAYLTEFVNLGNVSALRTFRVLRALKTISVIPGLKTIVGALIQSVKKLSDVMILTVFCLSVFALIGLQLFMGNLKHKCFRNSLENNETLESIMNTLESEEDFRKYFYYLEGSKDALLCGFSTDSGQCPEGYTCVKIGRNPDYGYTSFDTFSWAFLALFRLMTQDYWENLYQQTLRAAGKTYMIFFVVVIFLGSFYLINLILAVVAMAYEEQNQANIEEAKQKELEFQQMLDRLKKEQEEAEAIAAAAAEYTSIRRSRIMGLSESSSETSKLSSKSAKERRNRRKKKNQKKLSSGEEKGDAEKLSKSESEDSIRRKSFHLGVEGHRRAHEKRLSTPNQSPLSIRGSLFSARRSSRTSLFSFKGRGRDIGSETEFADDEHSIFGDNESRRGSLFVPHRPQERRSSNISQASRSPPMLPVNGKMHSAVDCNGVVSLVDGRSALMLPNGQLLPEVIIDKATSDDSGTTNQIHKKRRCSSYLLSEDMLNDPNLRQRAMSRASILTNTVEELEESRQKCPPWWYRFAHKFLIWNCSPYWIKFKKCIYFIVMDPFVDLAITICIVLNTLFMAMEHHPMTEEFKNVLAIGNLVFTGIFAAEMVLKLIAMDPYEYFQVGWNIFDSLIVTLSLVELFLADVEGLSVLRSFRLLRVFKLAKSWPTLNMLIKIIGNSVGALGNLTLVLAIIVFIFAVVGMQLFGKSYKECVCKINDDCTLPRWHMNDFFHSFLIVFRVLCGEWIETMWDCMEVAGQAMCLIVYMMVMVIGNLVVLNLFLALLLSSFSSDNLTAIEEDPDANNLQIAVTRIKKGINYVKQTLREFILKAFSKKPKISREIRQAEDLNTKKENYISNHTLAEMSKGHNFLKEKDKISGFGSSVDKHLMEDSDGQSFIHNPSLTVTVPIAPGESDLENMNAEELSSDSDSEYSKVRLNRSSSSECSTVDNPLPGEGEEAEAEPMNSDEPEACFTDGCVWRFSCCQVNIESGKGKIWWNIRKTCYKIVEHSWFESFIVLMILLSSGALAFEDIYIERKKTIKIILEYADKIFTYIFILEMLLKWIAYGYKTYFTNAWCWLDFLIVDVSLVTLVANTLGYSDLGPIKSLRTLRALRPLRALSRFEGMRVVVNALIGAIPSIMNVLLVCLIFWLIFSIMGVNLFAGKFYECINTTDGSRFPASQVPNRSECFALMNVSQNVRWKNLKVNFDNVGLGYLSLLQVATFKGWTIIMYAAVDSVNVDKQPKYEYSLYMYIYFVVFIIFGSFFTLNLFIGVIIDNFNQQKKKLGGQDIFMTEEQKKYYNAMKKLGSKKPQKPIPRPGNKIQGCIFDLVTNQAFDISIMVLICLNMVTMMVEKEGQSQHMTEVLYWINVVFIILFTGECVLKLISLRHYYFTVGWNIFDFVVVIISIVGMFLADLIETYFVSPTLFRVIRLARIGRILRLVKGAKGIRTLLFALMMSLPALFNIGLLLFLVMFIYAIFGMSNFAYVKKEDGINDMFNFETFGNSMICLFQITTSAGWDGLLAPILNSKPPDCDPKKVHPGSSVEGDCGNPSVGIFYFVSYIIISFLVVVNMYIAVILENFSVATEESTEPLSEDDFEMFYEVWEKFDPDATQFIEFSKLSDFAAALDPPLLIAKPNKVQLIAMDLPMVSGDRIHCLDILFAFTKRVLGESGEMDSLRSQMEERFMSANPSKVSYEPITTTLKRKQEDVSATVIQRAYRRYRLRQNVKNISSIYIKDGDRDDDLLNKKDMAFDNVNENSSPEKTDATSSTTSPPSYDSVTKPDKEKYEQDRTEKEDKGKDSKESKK

[3] = molecular target: hNav1.5 (Homo sapiens, UniProt Q14524); conditions: IonWorks Quattro, read-out: IWQ Use Nav1.5
[4] = clamped to −110 mV, depolarized to −10 mV, 5 min after compound, n=2

`CC[C@H](C)[C@@H]1NC(=O)[C@@H]2CSSC[C@@H]3NC(=O)[C@H](C(C)C)NC(=O)[C@H](CC(C)C)NC(=O)[C@H](CC(N)=O)NC(=O)[C@@H]4CCCN4C(=O)[C@H](CCCNC(=N)N)NC(=O)[C@H](CSSC[C@H](NC(=O)[C@@H](N)CC(=O)O)C(=O)N[C@@H](CC(C)C)C(=O)NCC(=O)N[C@@H](Cc4ccc5ccccc5c4)C(=O)N[C@@H](CCSC)C(=O)N[C@@H](CCCNC(=N)N)C(=O)N[C@@H](CCCCN)C(=O)N2)NC(=O)[C@H](CSSC[C@@H](C(=O)N[C@@H](CCCCN)C(=O)N[C@@H](Cc2ccc(O)cc2)C(=O)N[C@H](C(=O)N[C@@H](Cc2cccc4ccccc24)C(N)=O)C(C)C)NC(=O)[C@H](Cc2c[nH]c4ccccc24)NC(=O)[C@H](CCCCN)NC(=O)[C@H](Cc2c[nH]cn2)NC(=O)[C@H]([C@@H](C)O)NC(=O)[C@H](CCCNC(=N)N)NC(=O)[C@H](CO)NC3=O)NC(=O)[C@H](CCCCN)NC(=O)[C@H](CC(=O)O)NC(=O)[C@H](CC(N)=O)NC(=O)[C@H](CC(=O)O)NC(=O)[C@@H]2CCCN2C1=O` [compound 137] (H-DCLG[2Nal]MRKCIPDNDKCCRPNLVCSRTHKWCKYV[1Nal]-NH2; disulfide 2-17, 9-23, 16-30) gave a pIC50 ([1]; use-dependent block, hNav1.3) of 7.70, a pIC50 ([2]; use-dependent block, hNav1.7) of 6.96 and a pIC50 ([3]; use-dependent block, hNav1.5) of 5.50.
Compound `CSCC[C@@H]1NC(=O)[C@H]([C@@H](C)O)NC(=O)CNC(=O)[C@H](CC(C)C)NC(=O)[C@@H](NC(=O)[C@@H](N)CC(=O)O)CSSC[C@@H]2NC(=O)[C@@H]3CSSC[C@@H](C(=O)N[C@@H](CCCCN)C(=O)N[C@@H](Cc4ccc(O)cc4)C(=O)N[C@H](C(=O)N[C@@H](Cc4ccccc4)C(N)=O)C(C)C)NC(=O)[C@H](Cc4c[nH]c5ccccc45)NC(=O)[C@H](CCCCN)NC(=O)[C@H](Cc4c[nH]cn4)NC(=O)[C@H]([C@@H](C)O)NC(=O)[C@H](CCCNC(=N)N)NC(=O)[C@H](CO)NC(=O)[C@H](CSSC[C@H](NC(=O)[C@H](CCCCN)NC(=O)[C@H](CCCNC(=N)N)NC1=O)C(=O)N[C@@H](CC(=O)O)C(=O)N1CCC[C@H]1C(=O)N[C@@H](CCC(=O)O)C(=O)N[C@@H](CC(N)=O)C(=O)N[C@@H](CC(=O)O)C(=O)N[C@@H](CCCCN)C(=O)N3)NC(=O)[C@H](C(C)C)NC(=O)[C@H](CC(C)C)NC(=O)[C@H](CC(N)=O)NC(=O)[C@@H]1CCCN1C(=O)[C@H](CCCNC(=N)N)NC2=O` [compound 773] (H-DCLGTMRKCDPENDKCCRPNLVCSRTHKWCKYVF-NH2; disulfide 2-17, 9-23, 16-30) has a pIC50 ([1]; use-dependent block, hNav1.3) of 5.47, a pIC50 ([2]; use-dependent block, hNav1.7) of 5.35 and a pIC50 ([3]; use-dependent block, hNav1.5) of 4.55.
`CC[C@H](C)[C@@H]1NC(=O)[C@@H]2CSSC[C@@H]3NC(=O)[C@H](C(C)C)NC(=O)[C@H](CC(C)C)NC(=O)[C@H](CC(N)=O)NC(=O)[C@@H]4CCCN4C(=O)[C@H](CCCNC(=N)N)NC(=O)[C@H](CSSC[C@H](NC(=O)[C@H](CC(=O)O)NC(=O)[C@@H](N)CCCNC(=N)N)C(=O)N[C@@H](CC(C)C)C(=O)NCC(=O)N[C@@H](Cc4ccccc4)C(=O)N[C@@H](CCSC)C(=O)N[C@@H](CCCNC(=N)N)C(=O)N[C@@H](CCCCN)C(=O)N2)NC(=O)[C@H](CSSC[C@@H](C(=O)N[C@@H](CCCCN)C(=O)N[C@@H](Cc2ccc(O)cc2)C(=O)N[C@H](C(=O)N[C@@H](Cc2ccccc2)C(N)=O)C(C)C)NC(=O)[C@H](Cc2c[nH]c4ccccc24)NC(=O)[C@H](CCCCN)NC(=O)[C@H](Cc2c[nH]cn2)NC(=O)[C@H]([C@@H](C)O)NC(=O)[C@H](CCCNC(=N)N)NC(=O)[C@H](CO)NC3=O)NC(=O)[C@H](CCCCN)NC(=O)[C@H](CC(=O)O)NC(=O)[C@H](CC(N)=O)NC(=O)[C@H](CC(=O)O)NC(=O)[C@@H]2CCCN2C1=O` [SEQ ID NO: 61] showed a pIC50 [1, 4] of 7.10, a pIC50 [2, 4] of 6.77 and a pIC50 [3, 4] of 4.82.
`CC[C@H](C)[C@@H]1NC(=O)[C@@H]2CSSC[C@@H]3NC(=O)[C@H](C(C)C)NC(=O)[C@H](CC(C)C)NC(=O)[C@H](CC(N)=O)NC(=O)[C@@H]4CCCN4C(=O)[C@H](CCCNC(=N)N)NC(=O)[C@H](CSSC[C@H](NC(=O)[C@@H](N)CC(=O)O)C(=O)N[C@@H](CC(C)C)C(=O)NCC(=O)N[C@@H](Cc4ccccc4)C(=O)N[C@@H](CCSC)C(=O)N[C@@H](CCCNC(=N)N)C(=O)N[C@@H](CCCCN)C(=O)N2)NC(=O)[C@H](CSSC[C@@H](C(=O)N[C@@H](CCCCN)C(=O)NCC(=O)N[C@H](C(=O)N[C@@H](Cc2ccccc2)C(N)=O)C(C)C)NC(=O)[C@H](Cc2c[nH]c4ccccc24)NC(=O)[C@H](CCCCN)NC(=O)[C@H](Cc2c[nH]cn2)NC(=O)[C@H]([C@@H](C)O)NC(=O)[C@H](CCCNC(=N)N)NC(=O)[C@H](CO)NC3=O)NC(=O)[C@H](CCCCN)NC(=O)[C@H](CC(=O)O)NC(=O)[C@H](CC(N)=O)NC(=O)[C@H](CC(=O)O)NC(=O)[C@@H]2CCCN2C1=O` [compound 378] (H-DCLGFMRKCIPDNDKCCRPNLVCSRTHKWCKGVF-NH2; disulfide 2-17, 9-23, 16-30) was tested, and the pIC50 ([1]; Table 25, use, […]) was 6.21, the pIC50 ([2]; Table 25, use, […]) was 6.15 and the pIC50 ([3]; Table 25, use, […]) was 4.95.
For `CC[C@H](C)[C@@H]1NC(=O)[C@@H]2CSSC[C@@H]3NC(=O)[C@H](C(C)C)NC(=O)[C@H](CC(C)C)NC(=O)[C@H](CC(N)=O)NC(=O)[C@@H]4CCCN4C(=O)[C@H](CCCNC(=N)N)NC(=O)[C@H](CSSC[C@H](NC(=O)[C@@H](N)CC(=O)O)C(=O)N[C@@H](CC(C)C)C(=O)NCC(=O)N[C@@H](Cc4ccccc4)C(=O)N[C@@H](CCSC)C(=O)N[C@@H](CCCNC(=N)N)C(=O)N[C@@H](CCCCN)C(=O)N2)NC(=O)[C@H](CSSC[C@@H](C(=O)N[C@@H](CCCCN)C(=O)N[C@@H](Cc2ccc(O)cc2)C(=O)N[C@@H](Cc2ccc(C(=O)O)cc2)C(=O)N[C@@H](Cc2ccccc2)C(N)=O)NC(=O)[C@H](Cc2c[nH]c4ccccc24)NC(=O)[C@H](CCCCN)NC(=O)[C@H](Cc2c[nH]cn2)NC(=O)[C@H]([C@@H](C)O)NC(=O)[C@H](CCCNC(=N)N)NC(=O)[C@H](CO)NC3=O)NC(=O)[C@H](CCCCN)NC(=O)[C@H](CC(=O)O)NC(=O)[C@H](CC(N)=O)NC(=O)[C@H](CC(=O)O)NC(=O)[C@@H]2CCCN2C1=O` [compound 403] (H-DCLGFMRKCIPDNDKCCRPNLVCSRTHKWCKY[Phe(4-COOH)]F-NH2; disulfide 2-17, 9-23, 16-30), the pIC50 ([1]; Table 26, use, […]) was 6.51, the pIC50 ([2]; Table 26, use, […]) was 6.80 and the pIC50 ([3]; Table 26, use, […]) was 5.04.
`CC[C@H](C)[C@@H]1NC(=O)[C@H](CC(=O)O)NC(=O)[C@@H]2CCCN2C(=O)[C@H]([C@@H](C)CC)NC(=O)[C@@H]2CSSC[C@@H]3NC(=O)[C@H](C(C)C)NC(=O)[C@H](CC(C)C)NC(=O)[C@H](CC(N)=O)NC(=O)[C@@H]4CCCN4C(=O)[C@H](CCCNC(=N)N)NC(=O)[C@H](CSSC[C@H](NC(=O)[C@@H](N)CC(=O)O)C(=O)N[C@@H](CC(C)C)C(=O)NCC(=O)N[C@@H](C)C(=O)N[C@@H](Cc4ccccc4)C(=O)N[C@@H](CCCNC(=N)N)C(=O)N[C@@H](CCCCN)C(=O)N2)NC(=O)[C@H](CSSC[C@@H](C(=O)N[C@@H](CCCCN)C(=O)N[C@@H](Cc2ccc(O)cc2)C(=O)N[C@H](C(=O)N[C@@H](Cc2ccccc2)C(=O)O)C(C)C)NC(=O)[C@H](Cc2c[nH]c4ccccc24)NC(=O)[C@H](CCCNC(=N)N)NC(=O)[C@H](Cc2c[nH]cn2)NC(=O)[C@H]([C@@H](C)O)NC(=O)[C@H](CCCNC(=N)N)NC(=O)[C@H](CO)NC3=O)NC(=O)[C@H](CCCCN)NC(=O)[C@H](CC(=O)O)NC1=O` [compound 842] gave a pIC50 ([1]; use-dependent block, hNav1.3) of 5.52, a pIC50 ([2]; use-dependent block, hNav1.7) of under 5.30 and a pIC50 ([3]; use-dependent block, hNav1.5) of under 5.30.
`CC[C@@H]1NC(=O)CNC(=O)[C@H](CC(C)C)NC(=O)[C@@H](NC(=O)[C@@H](N)CC(=O)O)CSSC[C@@H]2NC(=O)[C@@H]3CSSC[C@@H](C(=O)N[C@@H](CCCCN)C(=O)N[C@@H](Cc4ccc(O)cc4)C(=O)N[C@H](C(=O)N[C@@H](Cc4ccccc4)C(N)=O)C(C)C)NC(=O)[C@H](Cc4c[nH]c5ccccc45)NC(=O)[C@H](CCC(=O)O)NC(=O)[C@H](Cc4c[nH]cn4)NC(=O)[C@H]([C@@H](C)O)NC(=O)[C@H](CCCNC(=N)N)NC(=O)[C@H](CO)NC(=O)[C@H](CSSC[C@H](NC(=O)[C@H](CCCCN)NC(=O)[C@H](CCCNC(=N)N)NC(=O)[C@H](CC(C)C)NC1=O)C(=O)N[C@@H]([C@@H](C)CC)C(=O)N1CCC[C@H]1C(=O)N[C@@H](CC(=O)O)C(=O)N[C@@H](CC(N)=O)C(=O)N[C@@H](CC(=O)O)C(=O)N[C@@H](CCCCN)C(=O)N3)NC(=O)[C@H](C(C)C)NC(=O)[C@H](CC(C)C)NC(=O)[C@H](CC(N)=O)NC(=O)[C@@H]1CCCN1C(=O)[C@H](CCCNC(=N)N)NC2=O` [compound 707] (H-DCLG[Abu]LRKCIPDNDKCCRPNLVCSRTHEWCKYVF-NH2; disulfide 2-17, 9-23, 16-30) gave a pIC50 ([1]; use-dependent protocol, hNav1.3) of under 5.30, a pIC50 ([2]; use-dependent protocol, hNav1.7) of 5.92 and a pIC50 ([3]; use-dependent protocol, hNav1.5) of 5.22.
